Experimental data as given in US20250041309A1 (ZHENAO JINYINHUA PHARMACEUTICAL, priority 2021, published 2025).
“And” between values parts separate entries of the source, which are not always exact repeats. Identical values can stand only once. Counter-ions that a name gives are not always drawn.

Key:
Assay type in all cases: in vivo, SD rats
[1] = system: MCAO rats; experiment: Neurological deficits (mNSS) score in MCAO rats, oral administration (Example 21); parameters: scale not given here; conditions: gavage 4 mg/kg twice per day, one value per rat (30 per group)
Procedure: (§1) Administration route: gavage administration;
Dosage: 4 mg/kg body weight, twice per day;
Administration time: gavage administration twice in the morning and evening per day (administered immediately after modeling).
A rat model of middle cerebral artery ischemia/reperfusion (MCAO/R) was created using the suture method.
Scores were evaluated using the mNSS rat neurological deficit scoring method. The neurological deficits of the experimental rats were evaluated on 14 days after modeling. • ?

[2] = system: MCAO rats; experiment: Cerebral infarction range (TTC) in MCAO rats, oral administration (Example 23); conditions: gavage 8 mg/kg*2, after 14 days
Procedure: as §1
(§2) Dosage: 8 mg/kg body weight, twice a day;
(§3) Administration time: gavage administration twice a day in the morning and evening (administered immediately after modeling).
(§4) A rat model of middle cerebral artery ischemia/reperfusion (MCAO/R) was created using suture-occluded method.
(§5) The successfully modeled rats were randomly divided into 4 groups based on their scores, with an average of 20 rats in each group.
At the end of the experiment, the brain tissue of the rats was collected by bloodletting and frozen in a −20° C. freezer, and then is sliced into a thickness of 2 mm per slice. The brain tissue slices were placed in a 2% red tetrazolium (TTC) solution and incubated at 37° C. for 5 minutes. The infarcted tissue appeared white, while the non-infarcted tissue appeared red. Image J software was used to measure the area of cerebral infarction and the percentage of infarct area to the total brain area was calculated.

[3] = Weight monitoring of MCAO rats, oral administration (Example 21); conditions: gavage 4 mg/kg twice per day; for Weight D 0: D 0, group mean; for Weight D 4: D 4, group mean; for Weight D 7: D 7, group mean; for Weight D 11: D 11, group mean; for Weight D 14: D 14, group mean; for Weight D 18: D 18, group mean; for Weight D 21: D 21, group mean; for Weight D 25: D 25, group mean; for Weight D 28: D 28, group mean
Procedure: Administration route: gavage administration; Dosage: 4 mg/kg body weight, twice per day; Administration time: gavage administration twice in the morning and evening per day (administered immediately after modeling). A rat model of middle cerebral artery ischemia/reperfusion (MCAO/R) was created using the suture method. […] After surgical exposure of the carotid artery, suture was performed without ischemia-reperfusion injury; • (3) Treatment group 1: MCAO model+[…] citrate drug treatment group; • (4) Treatment group 2: MCAO model+Sildenafil citrate drug treatment group; […]

[4] = system: MCAO rats; experiment: Neurological function (behavioral) score in MCAO rats, oral administration (Example 23); conditions: gavage 8 mg/kg twice a day; after 3, 7 and 14 days administration
Procedure: as §1, §2, §3, §4
After 2 hours of embolization, then reperfusion, according to the scoring criteria in the attached table, the degree of neurological damage in the animals was scored using a blind method. Those with significant neurological deficits (>8 points) were considered successful in modeling.
as §5
Neurological function score: evaluation was conducted before treatment, 3 days, 7 days, and 14 days after treatment.

[5] = system: MCAO rats; experiment: Morris water maze experiment in MCAO rats, oral administration (Example 21); conditions: gavage 4 mg/kg twice per day, 14 days water maze test
Procedure: Morris water maze experiment: testing the learning and memory abilities of rats.
The Morris water maze experiment is conducted continuously for 6 days each time, with training conducted for the first 5 days and testing conducted on 6th day.
For each of the tests, the rats were trained four times a day at a fixed time period for the first five days (once in the first, second, third, and fourth quadrants respectively). At the beginning of the training, a platform was placed in the first quadrant, and from any starting points of the four quadrants on the pool wall, the rats were placed into the pool, facing the pool wall. The camera system records the time when the rats found the platform and their swimming path. Four training sessions involved placing rats into water from four different starting points. If the rat finds the platform or cannot find it within 60 seconds, the experimenter will guide it to the platform, rest on the platform for 10 seconds, and then proceed to the next experiment.
The rats were removed from the platform, dried with a soft cloth, and put back into the cage. Afterwards, the next experiment on the rat was performed until the numbered animals had finished swimming, and then the next set of experiments was conducted.
This experiment was conducted on the 14th day after administration. […]

[6] = system: ischemic stroke model rats; experiment: Cerebral infarction range (TTC), ischemic stroke model rats, intravenous administration (Example 22); conditions: 10 mg/kg iv qd 7 d
Text: (§6) On the day of the experiment, the rat was anesthetized with isoflurane gas and placed in a supine position for fixation. The skin was cut along the midline of the neck to expose the right common carotid artery. The nerves and fascia around the blood vessels from the common carotid artery bifurcation to the base of the skull were carefully removed, and the external and internal carotid arteries were separated sequentially. The MCAO suture was inserted from the free end of the external carotid artery, and the nylon suture was introduced into the internal carotid artery from the distal end of the external carotid artery. It was inserted into the Willis ring of the middle cerebral artery to effectively block the middle cerebral artery. The length of the inserted suture was 18-20 mm away from the bifurcation of the common carotid artery. Then the free end of the external carotid artery was ligated along with the endovascular suture to prevent bleeding. […] Animals were kept in cages. The animals successfully modeled were randomly divided into three groups based on their scores, namely the model control group, compound 1 AD group ([…] citrate group) 10 mg/kg, and compound 2 XD group (Sildenafil citrate group) 10 mg/kg, with 10 animals in each group. […] The endpoint of the experiment was 14 days after administration, and the dosage is detailed in the table below. This experiment was administered intravenously with a dosage of 10 mg/kg and a volume of 5 mL/kg, once per day for consecutive 7 days. At the end of the experiment, the brain tissue of the rats was collected by bloodletting and frozen in a -20° C. freezer, then are sliced with a thickness of 2 mm per slice. The brain tissue slices were placed in a 2% red tetrazolium (TTC) solution and incubated at 37° C. for 5 minutes. The infarcted tissue appeared white, while the non-infarcted tissue appeared red.

[7] = system: ischemic stroke model rats; experiment: Neurological function (behavioral) score, ischemic stroke model rats, intravenous administration (Example 22); parameters: scale not given here; conditions: 10 mg/kg iv qd 7 d, x ± s, n = 10
Text: as §6, with “cages. After 2 hours of embolization, then reperfusion, according to the scoring criteria in the attached table, the degree of neurological damage in the animals was scored using a blind method. Those with significant neurological deficits (>8 points) were considered successful in modeling. • ? Grouping and administration” for “cages.”, “Score before treatment, 3 days after treatment, 7 days after treatment,” for “At the end of the experiment, the brain tissue of the rats was collected by bloodletting”, “14 days after treatment.” for “frozen in a -20° C. freezer, then are sliced with a thickness of 2 mm per slice. The brain tissue slices were placed in a 2% red tetrazolium (TTC) solution and incubated at 37° C. for 5 minutes. The infarcted tissue appeared white, while the non-infarcted tissue appeared red.”

Compound	Score for neurological deficits (mNSS) after 14 days of administration, individual rats [1]	Improvement rate % of cerebral infarction range ([2]; versus model control group) [%]	Total cerebral infarction % ([2]; x ± s, n = 20) [%]	Weight D 0 [3] [g]	Weight D 4 [3] [g]	Weight D 7 [3] [g]	Weight D 11 [3] [g]	Weight D 14 [3] [g]	Weight D 18 [3] [g]	Weight D 21 [3] [g]	Weight D 25 [3] [g]	Weight D 28 [3] [g]	behavioral scores compared with the model control group [4]	average latency period, Morris water maze [5] [s]	Total cerebral infarction % ([6]; 14 days after administration, x ± s, n = 10) [%]	Improvement rate % of cerebral infarction range ([6]; 14 days, versus model control group) [%]	behavioral score, 3 days after medication ([7]; 3 days after medication)	behavioral score, 7 days after medication ([7]; 7 days after medication)	behavioral score, 14 days after medication ([7]; 14 days after medication)	behavioral score, Before medication ([7]; before medication)
CCCc1nn(C)c2c(=O)[nH]c(-c3cc(S(=O)(=O)N4C[C@@H](C)N[C@@H](C)C4)ccc3OCC)nc12 [Aildenafil, 1-[3-(6,7-dihydro-1-methyl-7-oxy-3-n-propyl-1H-pyrazolo[4,3-d]pyrimidin-5-yl)-4-ethoxybenzenesulfonyl]-3,5-dimethylpiperazine]	7 (7×) and 5 (3×) and 6 (7×) and 8 (6×) and 9 (4×) and 10 (2×)	31.5	17.0 ± 6.7	303.9	251.4	253.8	274.1	287.2	312.0	321.3	341.9	345.0	significant improvement	8.93						
CCCc1nn(C)c2c(=O)[nH]c(-c3cc(S(=O)(=O)N4CCN(C)CC4)ccc3OCC)nc12 [Sildenafil citrate]	8 (10×) and 9 (8×) and 7 (7×) and 10 (3×) and 5 and 6			297.7	251.4	249.0	266.9	282.4	307.6	318.3	339.6	345.9		16.88	21.5 ± 8.6	14.0	7.4 ± 1.4	6.1 ± 1.7	4.9 ± 1.7	9.6 ± 0.5
